Read-outs that look alike come from different tables or passages of the source.

Here are results for seven molecules from PMC6517818, “The yeast mitochondrial pyruvate carrier is a hetero‐dimer in its functional state” (The EMBO Journal, 2019).

B1: Mpc3 after nickel-affinity purification and Factor Xa cleavage of the histidine tag (natural protein, S. cerevisiae, UniProt P53311 1-146, looked up)
chain: MSASAFNFAFRRFWNSETGPKTVHFWAPTLKWGLVFAGLNDIKRPVEKVSGAQNLSLLATALIWTRWSFVIKPKNYLLASVNFFLGCTAGYHLTRIANFRIRNGDSFKQVIHYIIKGETPAAVAAKQTASTSMNKGVIGTNPPITH
notes: Mpc3, S. cerevisiae, UniProt P53311; codon-optimised synthetic gene; theoretical mass 17.1 kDa; Same construct as m2 after tag removal; The residues IEGR of the Factor Xa site probably remain at the C-terminus after cleavage (surmised); source: S. cerevisiae mitochondria (with Mpc1: W303-1B or SHY15; alone: SHY15), purified (nickel Sepharose, on-column Factor Xa cleavage) in LMNG and tetraoleoyl …

For data set [1], the target named is T1, Mpc1 (Mpc1/Mpc3 hetero-dimer, mitochondrial pyruvate carrier) (Saccharomyces cerevisiae, UniProt P53157+P53311).
T1 construct: Mpc1/Mpc3 hetero-complex, untagged Mpc1 co-expressed with C-terminally tagged Mpc3, reconstituted in liposomes; with Mpc3 (P53311)
T1 sequence (P53157 1-130): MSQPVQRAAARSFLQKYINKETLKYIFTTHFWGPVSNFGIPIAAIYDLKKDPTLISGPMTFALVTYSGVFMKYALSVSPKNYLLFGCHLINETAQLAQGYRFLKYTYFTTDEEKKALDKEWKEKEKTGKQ
T1 sequence (P53311 21-146): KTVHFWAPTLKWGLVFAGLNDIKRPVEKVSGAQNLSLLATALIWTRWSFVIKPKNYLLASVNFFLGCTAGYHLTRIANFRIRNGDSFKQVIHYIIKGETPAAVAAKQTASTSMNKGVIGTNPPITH
As to the kind of experiment: […]-pyruvate homo-exchange inhibition in proteoliposomes. The format is biochemical.

The target in data set [2] is T2, Mpc2 (Mpc1/Mpc2 hetero-complex, MPCFERM) (Saccharomyces cerevisiae, UniProt P38857+P53157).
T2 construct: Mpc1/Mpc2 hetero-complex with C-terminally tagged Mpc2, reconstituted in liposomes; with Mpc1 (P53157)
T2 sequence (P38857 1-129): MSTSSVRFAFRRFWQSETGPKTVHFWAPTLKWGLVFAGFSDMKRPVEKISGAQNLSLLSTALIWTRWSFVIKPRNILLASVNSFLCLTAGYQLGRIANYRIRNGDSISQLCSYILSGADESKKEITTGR
T2 sequence (P53157 1-130): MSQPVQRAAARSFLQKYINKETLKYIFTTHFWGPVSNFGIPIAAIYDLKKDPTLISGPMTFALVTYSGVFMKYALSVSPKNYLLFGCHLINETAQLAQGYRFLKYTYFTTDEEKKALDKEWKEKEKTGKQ
As to the kind of experiment: time course of pyruvate homo-exchange in proteoliposomes at ΔpH […]. The format is biochemical.

Data set [3] deals with the molecule itself. Kind of data set: SEC-MALS; SEC-MALLS, Superdex 200 10/300 GL; 20 mM Tris-HCl pH 7.4, 150 mM NaCl, 0.005% LMNG, 0.005 mg/ml TOCL; nickel-affinity-purified Mpc1/Mpc3 complex or Mpc3 alone injected; protein-conjugate method. On the technique in general: Size exclusion chromatography separates by hydrodynamic size, large species first.
Substrate in the data set “purified protein”: CC(=O)C(=O)O
As to the kind of experiment: purified protein. Type of data set: biochemical, Saccharomyces cerevisiae.

For data set [4], the target named is B1. Kind of data set: SEC-MALS; SEC-MALLS, Superdex 200 10/300 GL; 20 mM Tris-HCl pH 7.4, 150 mM NaCl, 0.005% LMNG, 0.005 mg/ml TOCL; nickel-affinity-purified Mpc1/Mpc3 complex or Mpc3 alone injected; protein-conjugate method. The settings on record: both partners purified.
For data set [5], the target named is T3, Mpc3 with a C-terminal Factor Xa cleavage site and octa-histidine tag (S. cerevisiae, UniProt P53311 1-146).
T3 construct: Mpc3, S. cerevisiae, UniProt P53311; codon-optimised synthetic gene; This is the tagged form as captured on the nickel resin; The complex was then released by on-column Factor Xa cleavage; also called Mpc3his; histidine-tagged Mpc3; source: S. cerevisiae mitochondria (SHY15 or W303-1B), co-expressed from pBEVY-GU with untagged Mpc1; LMNG-solubilised mitochondria, captured on nickel …
T3 sequence (looked up): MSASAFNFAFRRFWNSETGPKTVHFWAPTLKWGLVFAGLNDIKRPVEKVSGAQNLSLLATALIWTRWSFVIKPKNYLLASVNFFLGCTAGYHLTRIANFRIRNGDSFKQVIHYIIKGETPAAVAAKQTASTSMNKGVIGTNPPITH
As to the kind of experiment: pull-down; nickel-affinity co-purification: untagged Mpc1 co-expressed with His8-tagged partner in yeast mitochondria; solubilised in 1% LMNG, 20 mM Tris-HCl pH 7.4, 150 mM NaCl, 4 °C; bound to nickel Sepharose, washed with 40 mM imidazole, 0.1% LMNG, 0.1 mg/ml TOCL; released by on-column Factor Xa cleavage; SDS-PAGE with Coomassie stain and peptide mass fingerprinting; Mpc1/Mpc3 also purified in Triton X-100, DMNG …. The conditions noted are these: partners not purified.

Consider `CN(Cc1ccccc1)c1ccc2cc(C(=O)O)c(=O)oc2c1` [7ACC2], for which the IC50 – broadly, the concentration that gives 50% inhibition – in data set [1] (read-out: IC50) came to 27 ± 13 µM.

In the case of `N#C/C(=C\c1cn(-c2ccccc2)c2ccccc12)C(=O)O` [UK5099], in data set [1] (read-out: IC50), the IC50 was found to be 9 ± 7 µM.

In turn, `O=C(O)c1nn(Cc2ccc(Cl)cc2Cl)c2ccccc12` [lonidamine] returned an IC50 in data set [1] of 118 ± 24 µM.

For `CC(=O)C(=O)O` [pyruvate], in data set [2], the “time course of pyruvate homo-exchange in proteoliposomes at ΔpH 1.6” value was “the Mpc1/Mpc2 hetero‐complex was also active for ΔpH‐dependent pyruvate transport (Fig EV4D)”.

In the case of B1, in data set [3], the stoichiometry N – broadly, the number of molecules, sites or subunits per partner or assembly – is 2.

B2: Mpc1 (Mpc1/Mpc3 hetero-dimer, mitochondrial pyruvate carrier) (Saccharomyces cerevisiae S288C) (protein)
chain 1: MSQPVQRAAARSFLQKYINKETLKYIFTTHFWGPVSNFGIPIAAIYDLKKDPTLISGPMTFALVTYSGVFMKYALSVSPKNYLLFGCHLINETAQLAQGYRFLKYTYFTTDEEKKALDKEWKEKEKTGKQ
chain 2: KTVHFWAPTLKWGLVFAGLNDIKRPVEKVSGAQNLSLLATALIWTRWSFVIKPKNYLLASVNFFLGCTAGYHLTRIANFRIRNGDSFKQVIHYIIKGETPAAVAAKQTASTSMNKGVIGTNPPITH
notes: Mpc1/Mpc3 hetero-complex, untagged Mpc1 co-expressed with C-terminally tagged Mpc3, reconstituted in liposomes; with Mpc3 (P53311)
As for B2, in “purified protein”, the Km (commonly the concentration of substrate that gives half-maximal velocity) is 342 ± 58 µM.

B3: Mpc1 (untagged), mitochondrial pyruvate carrier protein 1 from Saccharomyces cerevisiae (natural protein, S. cerevisiae, UniProt P53157 1-130, looked up)
chain: MSQPVQRAAARSFLQKYINKETLKYIFTTHFWGPVSNFGIPIAAIYDLKKDPTLISGPMTFALVTYSGVFMKYALSVSPKNYLLFGCHLINETAQLAQGYRFLKYTYFTTDEEKKALDKEWKEKEKTGKQ
notes: Mpc1, S. cerevisiae, UniProt P53157; codon-optimised synthetic gene; theoretical mass 15 kDa; also called unmodified Mpc1; source: S. cerevisiae mitochondria (SHY15 or W303-1B), co-expressed from pBEVY-GU with histidine-tagged Mpc3 or Mpc2; co-purified on nickel Sepharose in LMNG and tetraoleoyl cardiolipin
B3: the “stoichiometry N” value in data set [4] and in data set [5] was 1 Mpc1:Mpc3 in each case.
